In article PMC9014415, “Repositioning of a Diaminothiazole Series Confirmed to Target the Cyclin-Dependent Kinase CRK12 for Use in the Treatment of African Animal Trypanosomiasis” (Journal of Medicinal Chemistry, 2022):
Marks after values point to notes of the source that are not given here.

Legend:
[1] = Bovine hepatocyte stability; type: in vitro ADME; settings: intrinsic clearance
Protocol: collagen coated cell culture plates for 10 minutes at 37 °C, 5% CO2. Upon addition of an equal volume of supplemented WME containing 1 µM test compound, an aliquot of incubation solution was removed to acetonitrile containing internal standard (final concentration 0.5 µM test compound and a cell density of 0.25 million cells/mL). Similarly, aliquots were removed at 3, 6, 9, 15, 30, 45, 60, 90 and 120 min. 100 µL of 80:20 water:acetonitrile was added to all samples and the analysis plate was centrifuged (10 min, 1,665 g, RT) prior to injection and analysis of samples by UPLC-MS/MS. The response (area ratio of test compound relative to internal standard) was plotted against time using an exponential decay model and rate of disappearance calculated. Hepatocyte CLint (mL/min/10^6 cells) was scaled to in vivo CLint (ml/min/g Liver) using the hepato-cellularity scaling factor of 120 x […]
(b) Bovine hepatocyte stability. Freshly isolated female bovine (Prim’Holstein) hepatocytes were supplied by Biopredic InternationalTM. […]
of 80:20 water:acetonitrile was added to all samples and the analysis plate was centrifuged (10 min, 1,665 g, RT) prior to injection and analysis of samples by UPLC-MS/MS. The response (area ratio of test compound to internal standard) was plotted against time using an exponential decay model and rate of disappearance calculated. […]

T. b. brucei = assay: Acute T. b. brucei efficacy in mice; type: in vivo, Trypanosoma brucei brucei; settings: 3 mg/kg bid po for 4 days
Protocol: (citrate, fumarate and phosphate) (Figure 9). These alternative salt forms of compound 2 were prepared and formulated in the best vehicle determined by injection site tolerability analysis (0.3M sodium acetate buffer, Kolliphor EL, N-methyl pyrrolidone, 2-pyrrolidone, and 11% water suitable for injection). Rat IM pharmacokinetics was then carried out with each salt to determine the salt form to use for efficacy. None of these salt forms offered any improvement in rat IM pharmacokinetic profile over the free base in the tolerated vehicle (Figure S7).
3. In vivo efficacy studies
The T. congolense (IL3000) and T. vivax (ILRAD V34) cell lines7, 8, both originating from Kenya, were used in the following in vivo mouse studies. For studies in cattle, either Trypanosoma congolense (savannah) KONT 2/133, 224) or T. vivax STIB 719 was used.
3.1 Mouse efficacy studies for T. brucei brucei.
Mouse efficacy studies for T. brucei brucei were carried out as previously detailed.9 3.2 NMRI mouse efficacy studies for T. congolense and T. vivax.
Mouse models of infections were carried out using standardized protocols. Briefly, 1 mL samples of cryopreserved T. congolense, or T. vivax-infected blood harvested directly from an infected mouse, were diluted with Hanks Balanced Salt Solution plus 20 mM glucose (HBSS+G) to 5 x 10^4 trypomastigotes/mL (5 x 105 for T. vivax). […]

T. vivax = assay: Cattle efficacy for compound 2, intramuscular (CIRDES), T. vivax; type: in vivo, Trypanosoma vivax
Protocol: Compound 2 was progressed into IM efficacy studies dosing at 10 mg/kg either once or twice, 15 h apart, in cattle infected with T. congolense or T. vivax. […]
3.5 Cattle efficacy for compound 2, intramuscular (CIRDES)
Felani-zebu cattle were housed in a fly-proof facility, acclimatised for 15 d prior to the study, cattle were treated with an anthelmintic, an ectoparasiticide and an antibiotic. Donor animals were infected with stabilates (frozen stocks) of either T. congolense KOT256 (resistant to 7 mg/kg diminazene in cattle) or T. vivax Gando Bongaly (resistant to diminazene 7 mg/kg and to isometamidium 1 mg/kg […]
in cattle). Blood from the donor animals, diluted with phosphate buffered glucose was used to infect recipient animals IV via the jugular vein. Infection was with approximately 100,000 fresh viable parasites. The compounds were given IM. Each injection was up to 10 mL and given in neck in the following order: left anterior third, right anterior third, left posterior third and right posterior third.
Animals over 240 kg required a fifth injection site for the IVP, and this was given in the left or right hind leg. Cattle were randomised to treatments. Parasitaemia was monitored 3 times per calendar week, though collection of blood and assessment of clinical symptoms. Blood samples were also […]
treatment). […]

Row | SMILES | Bovine Hepatocyte Cli [1] | Acute T. b. brucei efficacy in mice (T. b. brucei) | efficacy (T. vivax; T5, 10 mg/kg IM once) | Efficacy, individual animals (T. vivax; T5 dosed once IM, animals 1907, 1918, 1932, 1933, 1940) | efficacy (T. vivax; T6, 10 mg/kg IM twice, 15 h apart) | Efficacy, individual animals (T. vivax; T6 dosed twice IM, animals 1902, 1926, 1929) | efficacy (T. vivax; T9, saline twice, followed by compound 2 rescue dose twice IM 4 days later) | Efficacy, individual animals (T. vivax; T9 after 2 (rescue IM), animals 1931, 1934) | Cattle cured (T. vivax; T. vivax-infected cattle, 10 mg/kg IM once or twice, 10 mg/kg)
1 | CC(C)CS(=O)(=O)N[C@H]1CC[C@H](Nc2nc(N)c(C(=O)c3c(F)cccc3F)s2)CC1 [Compound 1, N-((trans)-4-((4-Amino-5-(2,6-difluorobenzoyl)thiazol-2-yl)amino)cyclohexyl)-2-methylpropane-1-sulfonamide] | <0.5 / 0.5 mL/min/g | Cures 3 mg/kg bid po for 4 days |  |  |  |  |  |  | 
2 | CC(C)CS(=O)(=O)N[C@H]1CC[C@H](Nc2nc(N)c(C(=O)c3c(F)cc(CN(C)C)cc3F)s2)CC1 [Compound 2, N-(trans)-[4-[[4-Amino-5-[4-(dimethylaminomethyl)-2,6-difluoro-benzoyl]thiazol-2-yl]amino]cyclohexyl]-2-methyl-propane-1-sulfonamide] |  |  | 0/5 ^a | No | 0/3 ^a | No | 0/2 ^a | No and no | none and not cured
